Assay results from patent publication US20050165232A1, “Phenyl substituted imidaopyridines and phenyl substituted benzimidazoles” (priority 2002, published 2005).
One block for each compound: values may come before it.

Columns and labels:
[1] = target: T1, adenosine A3 receptor (Rattus norvegicus, UniProt P28647); experiment: Rat adenosine A3 receptor binding assay; details: radioligand 125I AB-MECA, rat recombinant EBNA cells
T1 construct: expressed in transfected cells; host or cells: EBNA cells
T1 sequence (P28647 1-320): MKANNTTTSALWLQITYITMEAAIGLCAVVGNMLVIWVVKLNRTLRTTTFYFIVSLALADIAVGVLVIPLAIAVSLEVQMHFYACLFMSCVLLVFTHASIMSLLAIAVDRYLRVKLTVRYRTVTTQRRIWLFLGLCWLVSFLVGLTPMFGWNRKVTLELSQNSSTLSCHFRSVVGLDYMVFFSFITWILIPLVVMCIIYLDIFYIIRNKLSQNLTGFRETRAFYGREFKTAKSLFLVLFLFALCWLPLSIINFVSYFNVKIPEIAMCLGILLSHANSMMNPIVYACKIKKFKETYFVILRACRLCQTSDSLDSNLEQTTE
Experimental: Adenosine A3 radioligand binding was performed as follows. Rat recombinant EBNA cells were used with 1 nM ^125I AB-MECA as ligand.

[2] = target: T2, adenosine A1 (Rattus norvegicus, UniProt P25099); experiment: Rat adenosine A1 tissue assay (vas deferens); parameters: species or system Wistar rat
T2 construct: Wistar rat (ca. 275 g) vas deferens were used; from tissue; host or cells: Wistar rat vas deferens
T2 sequence (P25099 1-326): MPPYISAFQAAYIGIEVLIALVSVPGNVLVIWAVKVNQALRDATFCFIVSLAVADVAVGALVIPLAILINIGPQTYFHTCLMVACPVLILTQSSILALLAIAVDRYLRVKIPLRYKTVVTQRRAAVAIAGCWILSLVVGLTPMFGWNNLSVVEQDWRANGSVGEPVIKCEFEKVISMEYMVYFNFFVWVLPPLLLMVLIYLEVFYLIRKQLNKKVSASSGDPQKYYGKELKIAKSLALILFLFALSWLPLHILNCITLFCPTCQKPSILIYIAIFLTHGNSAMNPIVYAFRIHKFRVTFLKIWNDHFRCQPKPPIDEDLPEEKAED
Experimental: An adenosine A1 tissue assay was performed as follows to determine antagonist versus agonist functional activity. […] The vehicle used was 0.1% DMSO, the incubation buffer used was Krebs at pH 7.4, and the incubation time was 5 min at 32° C. The administration volume was 10 μL, the bath volume was 10 mL, and the time of assessment was 5 min using an isometric (gram changes) quantitation method. The criteria for functional agonism was a ≧50% reduction of neurogenic twitch relative to CHA response. The criteria for functional antagonism was a ≧50% inhibition of CHA-induced relaxation.

Kd [1]: 1.3 nM
SMILES: CNC(=O)[C@H]1O[C@@H](n2cnc3c(NCc4ccc(N)cc4)ncnc32)[C@H](O)[C@@H]1O [AB-MECA]

agonist reference response ([2]; 0.3 μM): 100%
SMILES: OC[C@H]1O[C@@H](n2cnc3c(NC4CCCCC4)ncnc32)[C@H](O)[C@@H]1O [CHA, N6-(cyclohexyl)adenosine]

antagonist reference response ([2]; 10 nM): 87%
SMILES: CCCn1c(=O)c2[nH]c(C3CCCC3)nc2n(CCC)c1=O [DPCPX, 8-cyclopentyl-1,3-dipropylxanthine]
